According to patent US8221762B2, “Naturally processed measles virus peptides from class II HLA molecules” (priority 2004, dated 2012):

How the values were obtained:
[1] = test system: PBMC of subjects previously immunized with MMR-II vaccine; test: T cell proliferation assay ([3H]-thymidine, 4 days, SI>2 positive), Example 3; details: 131 subjects (MV-P2 130, MV-F 43)
Experimental: Briefly, study participants were enrolled as part of a larger stratified random sample study to assess associations between HLA genes and immune response to measles-mumps-rubella-II (MMR-II) vaccine in healthy, school-age children and young adults (ages 12 to 18 years). To evaluate the cellular responses to measles peptides, 131 subjects were used. In addition, a random subset of 43 individuals was tested for reactivity to a control measles fusion (F) peptide. All enrolled subjects had been previously immunized with two doses of MMR-II vaccine (Merck Research, West Point, Pa.) containing the attenuated Edmonston strain of MV. All but four of these participants were Caucasian and all subjects resided in a geographic area where no wild-type MV had circulated in the community during the subjects' lifetimes.
In brief, peripheral blood mononuclear cells (PBMC) were separated from heparinized blood by Ficoll-Hypaque (Sigma, St. Louis, Mo.) density gradient centrifugation and washed in RPMI 1640 medium (Celox Laboratories, Inc., St. Paul, Minn.) supplemented with 2 mM L-glutamine, 100 μg/ml streptomycin, 100 U/ml penicillin and 8% fetal calf serum (Life Technologies, Gaithersburg, Md.). Measles virus, MV-P1, MV-P2, and MV-F specific T cell responses were measures by proliferation of PBMC (2×10^5) incubated in RPMI-1640 medium, supplemented with 5% autologous sera, with live attenuated MV (50 pfu/ml, positive control) or synthetic peptides (20 μg/ml) compared to unstimulated cell control wells. Phytohemagglutinin (PHA, 5 μg/ml) was used to assess cell vitality. Only assays in which PBMC responded to PHA were accepted. T lymphocyte proliferation was measured after 4 days by [^3H]-tritiated thymidine uptake. Cells were then harvested onto glass fiber filters, using a 96-well harvesting system (Skatron Instruments, Norway). The amount of incorporated radioactivity was determined by a liquid scintillation counter (Packard Instrument Company, Boston, Mass.). We used six replicates of counts per minute (cpm) values for unstimulated cells, and three replicates each for T cells stimulated with peptides and live measles vaccine. For each subject, median cpm were calculated for unstimulated cells, as well as for cells stimulated with MV-P1, MV-P2, MV-F and measles. Results were then expressed as antigen-specific stimulation indices (SI), defined as the ratio of the median cpm of antigen-stimulated wells to the median cpm of unstimulated control wells. […] SI>2 was arbitrarily selected prior to the study as an indication of the presence of reactive peptide specific memory T cells, and SI<2 as an indicator of the lack of memory T lymphocytes to measles-derived peptides (Pauksen, et al., Bone Marrow Transplant 20:317-323, 1997).
Three outcomes were of primary interest: T cell proliferation (as measured by stimulation indices) induced separately by live MV, the MV-P1 peptide, and the MV-P2 peptide variant. Data were descriptively summarized using frequencies and percentages for all categorical variables, and medians and ranges for all continuous variables.

[2] = test system: PBMC of subjects previously immunized with MMR-II vaccine; test: IL-4 supernatant cytokine response (ELISA) to measles virus and synthetic measles peptides; type: cell-based, human; details: for Median secretion value IL-4: stimulated minus control cells
Experimental: (§1) To evaluate the immunogenicity of measles-derived peptides, 281 of these subjects (age 12 to 18 years) were studied.
(§2) Cryopreserved PBMC were used to measure cytokine responses to measles-derived peptides. We thawed cryopreserved PBMC at a concentration of 1×10^7 cells/mL using standard protocol. The vials were rapidly thawed in a 37° C. water bath and then washed twice with 10× volume of complete RPMI 1640 media supplemented with 10% FCS at 700 rpm for 5 minutes. The final cell pellet was resuspended in complete RPMI media containing penicillin-streptomycin (100 U/mL) and supplemented with 5% normal human AB sera (Ervin Sci., Santa Ana, Calif.). For IFN-γ determination, thawed PBMC were cultured at a concentration of 2×10^5 in RPMI containing 5% normal human AB sera with or without measles peptides (10 μg/well) and MV (positive control) at a moi of 0.5 for 6 days. For IL-4 determination in cell culture supernatants, we cultured thawed PBMC at a concentration of 4×10^5 in RPMI media, supplemented with 5% normal human AB sera. Cells were cultured in the presence of 2 μg/mL of IL-4 receptor antibody (R&D Systems, Minneapolis, Minn.) (Ekerfelt, et al., J. Immunol. Methods 260:55-67, 2002) with or without synthetic measles-derived peptides (10 μg/well) and MV (positive control) at a moi of 0.1 for 6 days. Cell culture supernatants were collected in a volume of 150 μl/well for both IFN-γ and IL-4 and were frozen at […] until assayed. The culture supernatants were assayed using a standard ELISA protocol (OptiEtA Human IFN-γ and IL-4, PharMingen, San Diego, Calif.) at a dilution of 1:1 in PBS containing 10% FCS. ELISA plates (Immulon-4, DYNEX Technologies Inc, Chantilly, Va.) were coated with capture IFN-γ or IL-4 mAb and incubated overnight at 4° C. The antibody-coated plates were incubated with diluted supernatant samples for 2 hours at room temperature followed by incubation with biotinylated mouse anti-human IFN-γor IL-4 conjugated to avidin-horseradish peroxidase for 1 hour at room temperature. The absorbance of the product was read using a microplate reader (Molecular Devices, Sunnyvale, Calif.) at 450 nm. The IFN-γ and IL-4 concentration of test samples was calculated by reference to the standard curve. Unstimulated and MV-stimulated secretion measurements for IFN-γ were performed in triplicate, while all other secretion measurements for both IFN-γ and IL-4 were performed in duplicate. Individual-specific values were then summarized by taking means of the duplicate or triplicate values. Mean background levels of IFN-γ and IL-4 cytokine production in cultures not stimulated with measles peptides or MV was subtracted from the mean antigen-induced responses to produce “corrected” secretion values. Negative corrected values indicate that the unstimulated secretion levels were, on average, higher than the stimulated secretion levels.
(§3) Two criteria were established to define positive responses for secreted IFN-γ and IL-4 cytokines using ELISA.

[3] = test system: PBMC from subjects previously immunized with MMR-II vaccine; test: T cell proliferation assay ([3H]-thymidine, 3 days, SI cut point 3.0), Example 1; type: cell-based, human; details: 95 subjects
Description: Study participants included ninety-five healthy residents of Olmsted County, Minn., aged 11 to 18 years. […] Mononuclear leukocytes were isolated by Ficoll-Hypaque (Amersham) density gradient centrifugation.
For descriptive analyses, we used medians and ranges for continuous variables and frequencies for categorical variables. We compared cpm for MV-stimulated, MV-P1-stimulated and MV-P2-stimulated cells with unstimulated cells using Wilcoxon signed rank tests. Associations between the continuously distributed stimulation indices for MV-P1, MV-P2 peptides, and MV were determined using Spearman rank correlation coefficients. Stimulation indices were subsequently dichotomized into positive or negative using a cut point of 3.0. We then compared MV positivity with MV-P1 and MV-P2 positivity using estimates of sensitivity.

[4] = test system: PBMC of subjects previously immunized with MMR-II vaccine; test: IFN-γ supernatant cytokine response (ELISA) to measles virus and synthetic measles peptides; type: cell-based, human; details: for Median secretion value IFN-γ: stimulated minus control cells
Experimental: as §1, §2, §3

[5] = peptides 20 μg/ml, MV 50 pfu/ml, 4 days
[6] = 281 subjects, stimulated cells minus unstimulated cells
[7] = peptides 20 μg/ml, MV 50 PFU/well

## CC[C@H](C)[C@H](NC(=O)[C@H](CCC(=O)O)NC(=O)CNC(=O)CNC(=O)[C@H](CCC(=O)O)NC(=O)[C@H](C)NC(=O)[C@@H](NC(=O)[C@H](CCC(=O)O)NC(=O)[C@@H](NC(=O)[C@H](CC(=O)O)NC(=O)[C@H](CO)NC(=O)[C@H](C)N)C(C)C)[C@@H](C)O)C(=O)N[C@@H](Cc1c[nH]cn1)C(=O)N[C@@H](CCC(=O)O)C(=O)N[C@@H](CC(C)C)C(=O)N[C@@H](CC(C)C)C(=O)N[C@@H](CCCNC(=N)N)C(=O)N[C@@H](CC(C)C)C(=O)N[C@@H](CCC(N)=O)C(=O)O [MV-P1]
[1]
  subjects with stimulation index greater than 2 (positive lymphoproliferative response): 41%
[1]; [5]
  stimulation index, median: 1.7
  stimulation index, range: 0.5-20.3
[2]; 281 subjects, peptides 10 μg/well, MV moi 0.1, 6 days
  IL-4 % Response (>10 pg/mL): 19.2%
[2]; [6]
  IL-4 Median level: -0.4 pg/mL
[2]; All other HLA-DRB1 alleles
  Median secretion value IL-4: -1.3 pg/mL
[2]; HLA-DRB1 allele *0101
  Median secretion value IL-4: 1.1 pg/mL
[2]; HLA-DRB1 allele *0102
  Median secretion value IL-4: 5.6 pg/mL
[2]; HLA-DRB1 allele *0103
  Median secretion value IL-4: -1.5 pg/mL
[2]; HLA-DRB1 allele *0301
  Median secretion value IL-4: 3.5 pg/mL
[2]; HLA-DRB1 allele *0401
  Median secretion value IL-4: 0.9 pg/mL
[2]; HLA-DRB1 allele *0402
  Median secretion value IL-4: 3.8 pg/mL
[2]; HLA-DRB1 allele *0404
  Median secretion value IL-4: 0.3 pg/mL
[2]; HLA-DRB1 allele *0407
  Median secretion value IL-4: -2.1 pg/mL
[2]; HLA-DRB1 allele *0701
  Median secretion value IL-4: -0.6 pg/mL
[2]; HLA-DRB1 allele *0801
  Median secretion value IL-4: -1.4 pg/mL
[2]; HLA-DRB1 allele *0901
  Median secretion value IL-4: -0.9 pg/mL
[2]; HLA-DRB1 allele *1001
  Median secretion value IL-4: 0.9 pg/mL
[2]; HLA-DRB1 allele *1101
  Median secretion value IL-4: -3.7 pg/mL
[2]; HLA-DRB1 allele *1103
  Median secretion value IL-4: -3.5 pg/mL
[2]; HLA-DRB1 allele *1104
  Median secretion value IL-4: -1.3 pg/mL
[2]; HLA-DRB1 allele *1201
  Median secretion value IL-4: -0.4 pg/mL
[2]; HLA-DRB1 allele *1301
  Median secretion value IL-4: -3.0 pg/mL
[2]; HLA-DRB1 allele *1302
  Median secretion value IL-4: 1.2 pg/mL
[2]; HLA-DRB1 allele *1303
  Median secretion value IL-4: -4.2 pg/mL
[2]; HLA-DRB1 allele *1401
  Median secretion value IL-4: -0.8 pg/mL
[2]; HLA-DRB1 allele *1501
  Median secretion value IL-4: -0.7 pg/mL
[2]; HLA-DRB1 allele *03011
  Median secretion value IL-4: 0.2 pg/mL
[2]; Overall (281)
  Median secretion value IL-4: -0.4 pg/mL
[2]; among the 143 subjects with IL-4 production from MV-stimulated PBMC
  MV IL-4 responders who also responded to the peptide: 23.1%
[3]
  subjects with stimulation index greater than 3.0 (recognized): 17%
[3]; [7]
  stimulation index, median: 1.4
  stimulation index, range: 0.5-20.3
[3]; peptides 20 μg/ml, live attenuated MV 50 PFU/well, 3 days
  median cpm value, lymphoproliferative assay: 472 cpm
[4]; 281 subjects, peptides 10 μg/well, MV moi 0.5, 6 days
  IFN-γ % Response (>20 pg/mL): 55.9%
[4]; [6]
  IFN-γ Median level: 28.0 pg/mL
[4]; All other HLA-DRB1 alleles
  Median secretion value IFN-γ: 26.7 pg/mL
[4]; HLA-DRB1 allele *0101
  Median secretion value IFN-γ: 51.2 pg/mL
[4]; HLA-DRB1 allele *0102
  Median secretion value IFN-γ: 17.6 pg/mL
[4]; HLA-DRB1 allele *0103
  Median secretion value IFN-γ: 116.2 pg/mL
[4]; HLA-DRB1 allele *0301
  Median secretion value IFN-γ: 40.8 pg/mL
[4]; HLA-DRB1 allele *0401
  Median secretion value IFN-γ: 33.5 pg/mL
[4]; HLA-DRB1 allele *0402
  Median secretion value IFN-γ: 0.1 pg/mL
[4]; HLA-DRB1 allele *0404
  Median secretion value IFN-γ: 52.2 pg/mL
[4]; HLA-DRB1 allele *0407
  Median secretion value IFN-γ: 8.6 pg/mL
[4]; HLA-DRB1 allele *0701
  Median secretion value IFN-γ: 18.6 pg/mL
[4]; HLA-DRB1 allele *0801
  Median secretion value IFN-γ: 27.2 pg/mL
[4]; HLA-DRB1 allele *0901
  Median secretion value IFN-γ: 19.9 pg/mL
[4]; HLA-DRB1 allele *1001
  Median secretion value IFN-γ: 46.9 pg/mL
[4]; HLA-DRB1 allele *1101
  Median secretion value IFN-γ: 48.5 pg/mL
[4]; HLA-DRB1 allele *1103
  Median secretion value IFN-γ: 65.3 pg/mL
[4]; HLA-DRB1 allele *1104
  Median secretion value IFN-γ: 15.4 pg/mL
[4]; HLA-DRB1 allele *1201
  Median secretion value IFN-γ: 14.6 pg/mL
[4]; HLA-DRB1 allele *1301
  Median secretion value IFN-γ: 27.4 pg/mL
[4]; HLA-DRB1 allele *1302
  Median secretion value IFN-γ: 14.2 pg/mL
[4]; HLA-DRB1 allele *1303
  Median secretion value IFN-γ: 63.9 pg/mL
[4]; HLA-DRB1 allele *1401
  Median secretion value IFN-γ: 22.5 pg/mL
[4]; HLA-DRB1 allele *1501
  Median secretion value IFN-γ: 32.8 pg/mL
[4]; HLA-DRB1 allele *03011
  Median secretion value IFN-γ: 18.7 pg/mL
[4]; Overall (281)
  Median secretion value IFN-γ: 28.0 pg/mL
[4]; among the 185 subjects who responded to MV
  MV IFN-γ responders who also produced IFN-γ to the peptide: 59.5%
